Non-standard residues stand in square brackets, D forms with d. Residues, ends and D or L forms follow the SMILES beside them. Nle = CCCC[C@H](N)C(=O)O; dAbu = CC[C@@H](N)C(=O)O; Aib = CC(C)(N)C(=O)O
Biological target: human MC4R (Homo sapiens, UniProt P32245)
Experiment: Intracellular cAMP levels in live cells, MC3R selectivity relative to MC4R
Format: cell-based
Details: cAMP assays in human MC3R and human MC4R stable cell lines
Protocol: The stable cell lines were grown and maintained in selection media consisting of Dulbecco's modified Eagle media (DMEM) with 4.5 g/l D-glucose, and 4 mM L-glutamine (Thermo Fisher Scientific, Waltham, MA), supplemented with 10% fetal bovine serum, 100 units/ml penicillin, 100 μg/ml streptomycin, 2.5 μg/ml amphotericin B, 200 μg/ml hygromycin B (for positive selection of the GScAMP22f luciferase reporter), and Geneticin™ (G418) 700 μg/ml (for MC3R or MC4R selection). Actual serum concentration during the assay is estimated to be about 1%. Cell line identity is routinely verified by qPCR and MC3R- and MC4R-specific oligonucleotides.
The assay for the determination of the CAMP response in live cells was described previously. […] Ccells were seeded at a density of 20,000 cells per well using 384-well poly-D lysine-coated, clear bottom, and black-wall assay plates (Corning Inc. Corning, NJ). Cells were allowed to attach to the plates for 18 to 24 h after which growth media was removed and 20 ul of 4% D-luciferin (Promega) in CO2 independent, serum-free medium (Thermo Fisher Scientific) was added to each well. […] Intracellular cAMP levels were measured using an FDSS 7000EX Functional Drug Screening System (Hamamatsu Photonics, Hamamatsu, Japan) in the Center for Chemical Genomics at the Life Sciences Institute. This instrument allowed the in-line addition of test-peptides and receptor agonists while simultaneously acquiring the luminescence signal from live cells. […] A submaximal forskolin (20 μM) concentration was also included to serve as a normalization reference to account for cell number variations and differences in assay transducer efficiency between cell lines.
With this set up it was possible to evaluate the direct agonist effect of the test-peptides on the MC3R and MC4R cell lines during measurement window 1, while the antagonist profile in the presence of EC90 α-MSH was determined on measurement window 2. […] EC50 or IC50 potency values were determined by non-linear regression by fitting the data to a sigmoid four-parameter variable slope model using the GraphPad Prism version 8.4 software package (San Diego CA).

human MC4R, sequence (P32245 whole entry): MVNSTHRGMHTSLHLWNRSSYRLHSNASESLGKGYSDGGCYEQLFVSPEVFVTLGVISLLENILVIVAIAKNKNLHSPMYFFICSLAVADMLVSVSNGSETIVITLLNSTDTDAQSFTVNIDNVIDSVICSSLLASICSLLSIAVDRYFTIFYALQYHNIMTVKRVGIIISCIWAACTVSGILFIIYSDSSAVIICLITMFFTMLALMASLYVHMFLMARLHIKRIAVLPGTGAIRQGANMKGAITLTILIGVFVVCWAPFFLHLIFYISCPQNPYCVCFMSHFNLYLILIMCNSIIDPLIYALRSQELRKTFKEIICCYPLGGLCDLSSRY

Structure (SMILES) | MC3R selectivity (relative to MC4R)
CCCC[C@H](NC(=O)[C@@H](NC(=O)[C@@H](N)Cc1ccc(O)cc1)C(C)C)C(=O)N[C@H](C)C(=O)N[C@@H](Cc1c[nH]cn1)C(=O)N[C@H](Cc1ccccc1)C(=O)N[C@@H](CCCNC(=N)N)C(=O)N[C@H](Cc1c[nH]c2ccccc12)C(=O)N[C@@H](CC(=O)O)C(=O)N[C@@H](CCCNC(=N)N)C(=O)N[C@@H](Cc1ccccc1)C(=O)NCC(=O)O [CTX-1104, Tyr-Val-Nle-D-Ala-His-D-Phe-Arg-D-Trp-Asp-Arg-Phe-Gly] (H-YV[Nle][dA]H[dF]R[dW]DRFG-OH) | 27
CCCC[C@H](NC(=O)[C@@H](NC(=O)[C@@H](N)Cc1ccc(O)cc1)C(C)C)C(=O)NCC(=O)N[C@@H](Cc1c[nH]cn1)C(=O)N[C@H](Cc1ccccc1)C(=O)N[C@@H](CCCNC(=N)N)C(=O)N[C@H](Cc1c[nH]c2ccccc12)C(=O)N[C@@H](CC(=O)O)C(N)=O [CTX-1107, Tyr-Val-Nle-Gly-His-D-Phe-Arg-D-Trp-Asp] (H-YV[Nle]GH[dF]R[dW]D-NH2) | 2.4
CC(=O)N[C@@H](CO)C(=O)NCC(=O)N[C@@H](Cc1c[nH]cn1)C(=O)N[C@H](Cc1ccccc1)C(=O)N[C@@H](CCCNC(=N)N)C(=O)N[C@H](Cc1c[nH]c2ccccc12)C(=O)N[C@@H](CC(=O)O)C(N)=O [CTX-1111, Ser-Gly-His-D-Phe-Arg-D-Trp-Asp] (Ac-SGH[dF]R[dW]D-NH2) | 0.1
CC(=O)N[C@H](C(=O)NCC(=O)N[C@@H](Cc1c[nH]cn1)C(=O)N[C@@H](Cc1ccccc1)C(=O)N[C@@H](CCCNC(=N)N)C(=O)N[C@H](Cc1c[nH]c2ccccc12)C(=O)N[C@@H](CC(=O)O)C(N)=O)[C@@H](C)O [CTX-1112, Thr-Gly-His-Phe-Arg-D-Trp-Asp] (Ac-TGHFR[dW]D-NH2) | 8.6
CC(=O)N[C@H](C(=O)NCC(=O)N[C@@H](Cc1c[nH]cn1)C(=O)N[C@H](Cc1ccccc1)C(=O)N[C@@H](CCCNC(=N)N)C(=O)N[C@H](Cc1c[nH]c2ccccc12)C(=O)N[C@@H](CC(=O)O)C(N)=O)[C@@H](C)O [CTX-1113, Thr-Gly-His-D-Phe-Arg-D-Trp-Asp] (Ac-TGH[dF]R[dW]D-NH2) | 0.4
CCCC[C@H](NC(C)=O)C(=O)N[C@H](C)C(=O)N[C@@H](Cc1c[nH]cn1)C(=O)N[C@@H](Cc1ccccc1)C(=O)N[C@@H](CCCNC(=N)N)C(=O)N[C@H](Cc1c[nH]c2ccccc12)C(=O)N[C@@H](CC(=O)O)C(N)=O [CTX-1123, Nle-D-Ala-His-Phe-Arg-D-Trp-Asp] (Ac-[Nle][dA]HFR[dW]D-NH2) | 28
CCCC[C@H](NC(=O)[C@@H](NC(=O)[C@@H](N)Cc1ccc(O)cc1)C(C)C)C(=O)NC(C)(C)C(=O)N[C@@H](Cc1c[nH]cn1)C(=O)N[C@@H](Cc1ccccc1)C(=O)N[C@@H](CCCNC(=N)N)C(=O)N[C@H](Cc1c[nH]c2ccccc12)C(=O)N[C@@H](CC(=O)O)C(N)=O [CTX-1130, Tyr-Val-Nle-Aib-His-Phe-Arg-D-Trp-Asp] (H-YV[Nle][Aib]HFR[dW]D-NH2) | 58
CCCC[C@H](NC(=O)[C@@H](NC(=O)[C@@H](N)Cc1ccc(O)cc1)C(C)C)C(=O)N[C@@H](C)C(=O)N[C@@H](Cc1c[nH]cn1)C(=O)N[C@@H](Cc1ccccc1)C(=O)N[C@@H](CCCNC(=N)N)C(=O)N[C@H](Cc1c[nH]c2ccccc12)C(=O)N[C@@H](CC(=O)O)C(=O)N[C@@H](CCCNC(=N)N)C(=O)N[C@@H](Cc1ccccc1)C(=O)NCC(=O)O [CTX-1133, Tyr-Val-Nle-Ala-His-Phe-Arg-D-Trp-Asp-Arg-Phe-Gly] (H-YV[Nle]AHFR[dW]DRFG-OH) | 7.4
CCCC[C@H](NC(=O)[C@@H](NC(=O)[C@@H](N)Cc1ccc(O)cc1)C(C)C)C(=O)N[C@H](CC)C(=O)N[C@@H](Cc1c[nH]cn1)C(=O)N[C@@H](Cc1ccccc1)C(=O)N[C@@H](CCCNC(=N)N)C(=O)N[C@H](Cc1c[nH]c2ccccc12)C(=O)N[C@@H](CC(=O)O)C(=O)N[C@@H](CCCNC(=N)N)C(=O)N[C@@H](Cc1ccccc1)C(=O)NCC(=O)O [CTX-1135, Tyr-Val-Nle-D-Abu-His-Phe-Arg-D-Trp-Asp-Arg-Phe-Gly] (H-YV[Nle][dAbu]HFR[dW]DRFG-OH) | 667
CCCC[C@H](NC(=O)[C@@H](NC(=O)[C@H](N)Cc1ccc(O)cc1)C(C)C)C(=O)N[C@H](C)C(=O)N[C@@H](Cc1c[nH]cn1)C(=O)N[C@@H](Cc1ccccc1)C(=O)N[C@@H](CCCNC(=N)N)C(=O)N[C@H](Cc1c[nH]c2ccccc12)C(=O)N[C@@H](CC(=O)O)C(N)=O [CTX-1142, D-Tyr-Val-Nle-D-Ala-His-Phe-Arg-D-Trp-Asp] (H-[dY]V[Nle][dA]HFR[dW]D-NH2) | 54
CCCC[C@H](NC(C)=O)C(=O)NC(C)(C)C(=O)N[C@@H](Cc1c[nH]cn1)C(=O)N[C@@H](Cc1ccccc1)C(=O)N[C@@H](CCCNC(=N)N)C(=O)N[C@H](Cc1c[nH]c2ccccc12)C(=O)N[C@@H](CC(=O)O)C(=O)N[C@@H](CCCNC(=N)N)C(=O)N[C@@H](Cc1ccccc1)C(=O)NCC(=O)O [CTX-1143, Nle-Aib-His-Phe-Arg-D-Trp-Asp-Arg-Phe-Gly] (Ac-[Nle][Aib]HFR[dW]DRFG-OH) | 3544
CCCC[C@H](NC(C)=O)C(=O)N[C@H](C)C(=O)N[C@@H](Cc1c[nH]cn1)C(=O)N[C@@H](Cc1ccccc1)C(=O)N[C@@H](CCCNC(=N)N)C(=O)N[C@H](Cc1c[nH]c2ccccc12)C(=O)N[C@@H](CC(=O)O)C(=O)N[C@@H](CCCNC(=N)N)C(=O)N[C@H](Cc1ccccc1)C(=O)NCC(=O)O [CTX-1145, Nle-D-Ala-His-Phe-Arg-D-Trp-Asp-Arg-D-Phe-Gly] (Ac-[Nle][dA]HFR[dW]DR[dF]G-OH) | 535
CCCC[C@H](NC(=O)[C@@H](NC(=O)CNC(=O)COCCOCCNC(=O)CNC(=O)CCc1ccc(I)cc1)C(C)C)C(=O)N[C@H](C)C(=O)N[C@@H](Cc1c[nH]cn1)C(=O)N[C@@H](Cc1ccccc1)C(=O)N[C@@H](CCCNC(=N)N)C(=O)N[C@H](Cc1c[nH]c2ccccc12)C(=O)N[C@@H](CC(=O)O)C(=O)N[C@@H](CCCNC(=N)N)C(=O)N[C@@H](Cc1ccccc1)C(=O)NCC(=O)O [CTX-1150, Gly-Val-Nle-D-Ala-His-Phe-Arg-D-Trp-Asp-Arg-Phe-Gly] | 577
CCCC[C@H](NC(=O)[C@@H](NC(=O)[C@@H](Cc1ccc(O)cc1)NC(=O)CNC(=O)COCCOCCNC(=O)CNC(=O)CCc1ccc(I)cc1)C(C)C)C(=O)N[C@H](C)C(=O)N[C@@H](Cc1c[nH]cn1)C(=O)N[C@@H](Cc1ccccc1)C(=O)N[C@@H](CCCNC(=N)N)C(=O)N[C@H](Cc1c[nH]c2ccccc12)C(=O)N[C@@H](CC(=O)O)C(=O)N[C@H](CCCNC(=N)N)C(=O)N[C@@H](Cc1ccccc1)C(=O)NCC(=O)O [CTX-1156, Gly-D-Tyr-Val Nle-D-Ala-His-Phe-Arg-D-Trp-Asp-D-Arg-Phe-Gly] | 86
CCCC[C@H](NC(C)=O)C(=O)N[C@H](C)C(=O)N[C@@H](Cc1c[nH]cn1)C(=O)N[C@@H](Cc1ccccc1)C(=O)N[C@@H](CCCNC(=N)N)C(=O)N[C@H](Cc1c[nH]c2ccccc12)C(=O)N[C@@H](CC(=O)O)C(=O)N[C@@H](CCCNC(=N)N)C(=O)N[C@@H](Cc1ccccc1)C(N)=O [CTX-1158, Nle-D-Ala-His-Phe-Arg-D-Trp-Asp-Arg-Phe] (Ac-[Nle][dA]HFR[dW]DRF-NH2) | 535

Source: patent publication US20240287154A1, “MC3R AGONIST PEPTIDES” (The Regents of the University of Michigan, priority 2021, published 2024)
